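All cell lines were grown in 96-well plates and treated with compound for 48 hours. At the TGI there is no net growth.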
What was measured:
Assay in all cases: NCI anticancer screen, dose series, 48 h
[1] = system: 786-0 renal
[2] = system: A498 renal
[3] = system: A549 NSCLC
[4] = system: ACHN renal
[5] = system: BT-549 breast
[6] = system: CAKI-1 renal
[7] = system: CCRF-CEM leukemia
[8] = system: COLO 205 colon
[9] = system: DU-145 prostate
[10] = system: EKVX NSCLC
[11] = system: HCC-2998 colon
[12] = system: HCT-116 colon
[13] = system: HCT-15 colon
[14] = system: HL-60(TB) leukemia
[15] = system: HOP-62 NSCLC
[16] = system: HOP-92 NSCLC
[17] = system: HS 578T breast
[18] = system: HT29 colon
[19] = system: IGROV1 ovarian
[20] = system: K-562 leukemia
[21] = system: KM12 colon
[22] = system: LOX IMVI melanoma
[23] = system: M14 melanoma
[24] = system: MALME-3M melanoma
[25] = system: MCF7 breast
[26] = system: MDA-MB-231 breast
[27] = system: MDA-MB-435
[28] = system: MDA-N
[29] = system: MOLT-4 leukemia
[30] = system: NCI-H226 lung
[31] = system: NCI-H23 lung
[32] = system: NCI-H460 lung
[33] = system: NCI-H522 lung
[34] = system: NCI/ADR-RES ovarian
[35] = system: OVCAR-3 ovarian
[36] = system: OVCAR-4 ovarian
[37] = system: OVCAR-5 ovarian
[38] = system: OVCAR-8 ovarian
[39] = system: PC-3 prostate
[40] = system: RPMI-8226 leukemia
[41] = system: RXF 393 renal
[42] = system: SF-268 CNS
[43] = system: SF-295 CNS
[44] = system: SF-539 CNS
[45] = system: SK-MEL-2 melanoma
[46] = system: SK-MEL-28 melanoma
[47] = system: SK-MEL-5 melanoma
[48] = system: SN12C renal
[49] = system: SNB-19 CNS
[50] = system: SNB-75 CNS
[51] = system: SR leukemia
[52] = system: SW-620 colon
[53] = system: T-47D breast
[54] = system: TK-10 renal
[55] = system: U251 CNS
[56] = system: UACC-257 melanoma
[57] = system: UACC-62 melanoma
[58] = system: UO-31 renal
[59] = system: SK-OV-3 ovarian

`COC(=O)c1ccc(/C=C/c2cc(O)ccc2O)cc1` was tested, and the TGI [1] was 16.9 µM, the TGI [2] was 33 µM and the TGI [3] was greater than 100 µM. It also gave a TGI [4] of 14.1 µM, a TGI [5] of 3.49 µM and a TGI [6] of 7.5 µM. It also gave a TGI [7] of 0.719 µM, a TGI [8] of 22.8 µM and a TGI [9] greater than 100 µM. It also gave a TGI [10] of 9.66 µM, a TGI [11] greater than 59.6 µM and a TGI [12] of 18.9 µM. The TGI [13] was 12.2 µM, the TGI [14] was 1.06 µM and the TGI [15] was greater than 69.3 µM. It also gave a TGI [16] of 7.69 µM, a TGI [17] greater than 100 µM and a TGI [18] greater than 100 µM. It also gave a TGI [19] of 9.42 µM, a TGI [20] of 4.38 µM and a TGI [21] of 28 µM. The TGI [22] was 9.39 µM, the TGI [23] was 43 µM and the TGI [24] was 5.64 µM. The TGI [25] was 21.8 µM, the TGI [26] was 24 µM and the TGI [27] was 13.5 µM. The TGI [28] was greater than 46.7 µM, the TGI [29] was 0.927 µM and the TGI [30] was greater than 27 µM. It also gave a TGI [31] greater than 38.5 µM, a TGI [32] of 25.9 µM and a TGI [33] of 0.356 µM. The TGI [34] was 7.72 µM, the TGI [35] was 6.86 µM and the TGI [36] was 15.9 µM. For the same compound, the TGI [37] was 70.3 µM, the TGI [38] was 18.4 µM and the TGI [39] was 22.2 µM. It also gave a TGI [40] of 4.14 µM, a TGI [41] of 6.59 µM and a TGI [42] of 8.41 µM. The TGI [43] was greater than 100 µM, the TGI [44] was 6.65 µM and the TGI [45] was greater than 31.6 µM. For the same compound, the TGI [46] was 43.4 µM, the TGI [47] was greater than 25.5 µM and the TGI [48] was 18.8 µM. It also gave a TGI [49] greater than 100 µM, a TGI [50] of 68.5 µM and a TGI [51] of 3.69 µM. It also gave a TGI [52] of 18.6 µM, a TGI [53] of 5.32 µM and a TGI [54] of 45.3 µM. It also gave a TGI [55] of 8.44 µM, a TGI [56] of 22.5 µM and a TGI [57] of 17.4 µM. The TGI [58] was 3.67 µM.
`CC(=O)N(C(C)=O)c1ncc(-n2nc(-c3ccccc3)cc2-c2ccccc2)c(-c2ccccc2)n1` was tested, and the TGI [1] was greater than 10 µM, the TGI [2] was greater than 10 µM and the TGI [3] was greater than 10 µM. For the same compound, the TGI [4] was greater than 10 µM, the TGI [5] was greater than 10 µM and the TGI [6] was greater than 10 µM. It also gave a TGI [7] greater than 10 µM, a TGI [8] greater than 10 µM and a TGI [9] greater than 10 µM. For the same compound, the TGI [10] was greater than 10 µM, the TGI [11] was greater than 10 µM and the TGI [12] was greater than 10 µM. The TGI [13] was greater than 10 µM, the TGI [14] was greater than 10 µM and the TGI [15] was greater than 10 µM. For the same compound, the TGI [16] was greater than 10 µM, the TGI [17] was greater than 10 µM and the TGI [18] was greater than 10 µM. For the same compound, the TGI [19] was greater than 10 µM, the TGI [20] was greater than 10 µM and the TGI [21] was greater than 10 µM. It also gave a TGI [22] greater than 10 µM, a TGI [23] greater than 10 µM and a TGI [24] greater than 10 µM. It also gave a TGI [25] greater than 10 µM, a TGI [26] greater than 10 µM and a TGI [27] greater than 10 µM. It also gave a TGI [28] of 9.42 µM, a TGI [29] greater than 10 µM and a TGI [30] greater than 10 µM. It also gave a TGI [31] greater than 10 µM, a TGI [32] greater than 10 µM and a TGI [33] greater than 10 µM. It also gave a TGI [34] greater than 10 µM, a TGI [35] greater than 10 µM and a TGI [36] greater than 10 µM. The TGI [37] was greater than 10 µM, the TGI [38] was greater than 10 µM and the TGI [39] was greater than 10 µM. The TGI [40] was greater than 10 µM, the TGI [41] was greater than 10 µM and the TGI [42] was greater than 10 µM. It also gave a TGI [43] greater than 10 µM, a TGI [44] greater than 10 µM and a TGI [45] greater than 10 µM. For the same compound, the TGI [46] was greater than 10 µM, the TGI [47] was greater than 10 µM and the TGI [59] was greater than 10 µM. The TGI [48] was greater than 10 µM, the TGI [49] was greater than 10 µM and the TGI [50] was greater than 10 µM. For the same compound, the TGI [51] was greater than 10 µM, the TGI [52] was greater than 10 µM and the TGI [53] was greater than 10 µM. It also gave a TGI [54] greater than 10 µM, a TGI [55] greater than 10 µM and a TGI [56] greater than 10 µM. The TGI [57] was greater than 10 µM.
`Cc1c(O)ccc2c(O)c(NC(=O)c3ccc4c(c3)CCC(C)(C)O4)c(=O)oc12` was tested, and the TGI [1] was greater than 100 µM, the TGI [2] was greater than 100 µM and the TGI [3] was greater than 100 µM. For the same compound, the TGI [4] was greater than 100 µM, the TGI [5] was greater than 100 µM and the TGI [6] was greater than 100 µM. The TGI [7] was greater than 100 µM, the TGI [8] was greater than 100 µM and the TGI [9] was greater than 100 µM. The TGI [10] was greater than 100 µM, the TGI [11] was greater than 100 µM and the TGI [12] was greater than 100 µM. For the same compound, the TGI [13] was greater than 100 µM, the TGI [14] was greater than 100 µM and the TGI [15] was greater than 100 µM. It also gave a TGI [16] greater than 100 µM, a TGI [17] greater than 100 µM and a TGI [18] greater than 100 µM. It also gave a TGI [19] greater than 100 µM, a TGI [20] greater than 100 µM and a TGI [21] greater than 100 µM. It also gave a TGI [22] greater than 100 µM, a TGI [24] greater than 100 µM and a TGI [25] greater than 100 µM. It also gave a TGI [26] greater than 100 µM, a TGI [27] greater than 100 µM and a TGI [28] greater than 100 µM. For the same compound, the TGI [29] was greater than 100 µM, the TGI [30] was greater than 100 µM and the TGI [31] was greater than 100 µM. The TGI [32] was greater than 100 µM, the TGI [33] was greater than 100 µM and the TGI [34] was greater than 100 µM. The TGI [35] was greater than 100 µM, the TGI [36] was greater than 100 µM and the TGI [37] was greater than 100 µM. The TGI [38] was greater than 100 µM, the TGI [39] was greater than 100 µM and the TGI [40] was greater than 100 µM. For the same compound, the TGI [41] was greater than 100 µM, the TGI [42] was greater than 100 µM and the TGI [43] was greater than 100 µM. For the same compound, the TGI [44] was greater than 100 µM, the TGI [45] was greater than 100 µM and the TGI [46] was greater than 100 µM. The TGI [47] was greater than 100 µM, the TGI [59] was greater than 100 µM and the TGI [48] was greater than 100 µM. For the same compound, the TGI [49] was greater than 100 µM, the TGI [50] was greater than 100 µM and the TGI [51] was greater than 100 µM. For the same compound, the TGI [52] was greater than 100 µM, the TGI [53] was greater than 100 µM and the TGI [54] was greater than 100 µM. It also gave a TGI [55] greater than 100 µM, a TGI [56] greater than 100 µM and a TGI [57] greater than 100 µM. For the same compound, the TGI [58] was greater than 100 µM.
Work on `O=C1Sc2cc3ccccc3cc2C(=O)Sc2ccc(Br)cc21` yielded a TGI [1] of 5.63 µM, a TGI [2] of 33.4 µM and a TGI [3] of 30.9 µM. For the same compound, the TGI [4] was 6.02 µM, the TGI [5] was 12.1 µM and the TGI [6] was 14.8 µM. For the same compound, the TGI [7] was greater than 19.7 µM, the TGI [8] was 34.9 µM and the TGI [9] was 16.9 µM. It also gave a TGI [10] of 28.1 µM, a TGI [11] of 19.3 µM and a TGI [12] of 16.3 µM. It also gave a TGI [13] of 7.71 µM, a TGI [14] greater than 100 µM and a TGI [15] of 18.3 µM. For the same compound, the TGI [16] was 20.9 µM, the TGI [17] was greater than 35 µM and the TGI [18] was 13.1 µM. The TGI [19] was 16.8 µM, the TGI [20] was 19.2 µM and the TGI [21] was 21.2 µM. It also gave a TGI [22] of 3.97 µM, a TGI [23] of 14.4 µM and a TGI [24] of 26.5 µM. It also gave a TGI [25] of 37.9 µM, a TGI [26] of 12.2 µM and a TGI [27] of 13.4 µM. It also gave a TGI [28] of 18 µM, a TGI [29] greater than 31.6 µM and a TGI [30] of 42.6 µM. It also gave a TGI [31] of 23.3 µM, a TGI [32] of 24.2 µM and a TGI [33] of 4.52 µM. It also gave a TGI [34] of 15.6 µM, a TGI [35] of 5.21 µM and a TGI [36] of 35.2 µM. The TGI [37] was 25.5 µM, the TGI [38] was 9.53 µM and the TGI [39] was 12.9 µM. For the same compound, the TGI [40] was greater than 100 µM, the TGI [41] was 7.88 µM and the TGI [42] was 23.2 µM. For the same compound, the TGI [43] was 29.1 µM, the TGI [44] was 27 µM and the TGI [45] was 12.8 µM. For the same compound, the TGI [46] was 9.79 µM, the TGI [47] was 27.5 µM and the TGI [59] was 29.3 µM. For the same compound, the TGI [48] was 16.8 µM, the TGI [49] was 32.2 µM and the TGI [50] was 13.3 µM. It also gave a TGI [51] of 9.14 µM, a TGI [52] of 14.2 µM and a TGI [53] of 23.8 µM. For the same compound, the TGI [54] was 17.8 µM, the TGI [55] was 5.27 µM and the TGI [56] was 17.6 µM. For the same compound, the TGI [57] was 10.5 µM.

Reference: PubChem BioAssay (NCI)
